Experimental data as given in patent US4287206A, “Halogen derivatives of 8-hydroxycarboxylic acids; the processes for their preparation and medicaments in which they are present” (priority 1978, dated 1981).

Assays:
[1] = tested on: mice; assay: Anti-reserpine activity in mice (reserpine hypothermia); format: in vivo; settings: reserpine 2.5 mg.kg^-1 i.p. 4 h before
Method: Anti-reserpine activity in mice
At time 0, the mice receive reserpine (2.5 mg.kg^-1) by intraperitoneal administration.
After 4 hours, when the hypothermia is significant (30 to 31°C.), the substance to be studied is administered intraperitoneally or orally. The rectal temperature is measured, using a probe, carrying a thermoelectric couple, inserted to a constant depth, every 30 minutes for 2 hours.

[2] = tested on: mice; assay: Interaction with barbital sodium (sleep induced by barbital sodium in mice); format: in vivo; settings: barbital sodium 180 mg.kg^-1 i.p.
Method: Interaction with barbital sodium
At time 0, the mice receive, by intraperitoneal or oral administration, distilled water or the medicament according to the invention. After 30 minutes, they receive barbital sodium (180 mg.kg^-1) by intraperitoneal administration.

SMILES: CC1CC(c2ccc(Cl)cc2)C(c2ccccc2)C(=O)O1 (stereo not drawn) [Example I, trans-4-(4'-chlorophenyl)-6-methyl-3-phenyl-3,4,5,6-tetrahydropyrone-2]
- Rectal temperatures °C. ± SD ([1]; Table IIa, 8 mg/kg oral, 120 min): 31.3 ± 0.56 °C
- Rectal temperatures °C. ± SD ([1]; Table IIa, 16 mg/kg oral, 30 min): 31.4 ± 0.41 °C
- Rectal temperatures °C. ± SD ([1]; Table IIa, 16 mg/kg oral, 60 min): 32.6 ± 0.56 °C
- Rectal temperatures °C. ± SD ([1]; Table IIa, 16 mg/kg oral, 90 min): 32.8 ± 0.53 °C
- Rectal temperatures °C. ± SD ([1]; Table IIa, 16 mg/kg oral, 120 min): 32.8 ± 0.45 °C
- Rectal temperatures °C. ± SD ([1]; Table IIa, 32 mg/kg oral, 30 min): 31.4 ± 0.31 °C
- Rectal temperatures °C. ± SD ([1]; Table IIa, 32 mg/kg oral, 60 min): 32.6 ± 0.44 °C
- Rectal temperatures °C. ± SD ([1]; Table IIa, 32 mg/kg oral, 90 min): 32.9 ± 0.41 °C
- Rectal temperatures °C. ± SD ([1]; Table IIa, 32 mg/kg oral, 120 min): 32.8 ± 0.38 °C
- Rectal temperatures °C. ± SD ([1]; Table IIa, 64 mg/kg oral, 30 min): 33.8 ± 0.58 °C
- Rectal temperatures °C. ± SD ([1]; Table IIa, 64 mg/kg oral, 60 min): 34.5 ± 0.33 °C
- Rectal temperatures °C. ± SD ([1]; Table IIa, 64 mg/kg oral, 90 min): 34.4 ± 0.39 °C
- Rectal temperatures °C. ± SD ([1]; Table IIa, 64 mg/kg oral, 120 min): 34.4 ± 0.35 °C
- Rectal temperatures °C. ± SD ([1]; Table IIa, 128 mg/kg oral, 30 min): 33.1 ± 0.56 °C
- Rectal temperatures °C. ± SD ([1]; Table IIa, 128 mg/kg oral, 60 min): 34.1 ± 0.56 °C
- Rectal temperatures °C. ± SD ([1]; Table IIa, 128 mg/kg oral, 90 min): 34.3 ± 0.58 °C
- Rectal temperatures °C. ± SD ([1]; Table IIa, 128 mg/kg oral, 120 min): 34.2 ± 0.53 °C
- Rectal temperatures °C. ± SD ([1]; Table IIa, 256 mg/kg oral, 30 min): 33.5 ± 0.47 °C
- Rectal temperatures °C. ± SD ([1]; Table IIa, 256 mg/kg oral, 60 min): 35.2 ± 0.15 °C
- Rectal temperatures °C. ± SD ([1]; Table IIa, 256 mg/kg oral, 90 min): 35.3 ± 0.34 °C
- Rectal temperatures °C. ± SD ([1]; Table IIa, 256 mg/kg oral, 120 min): 35.1 ± 0.33 °C
- Rectal temperatures °C. ± SD ([1]; 4 mg/kg intraperitoneal, 30 min): 32.7 ± 0.56 °C
- Rectal temperatures °C. ± SD ([1]; 4 mg/kg intraperitoneal, 60 min): 33.7 ± 0.47 °C
- Rectal temperatures °C. ± SD ([1]; 4 mg/kg intraperitoneal, 90 min): 33.1 ± 0.39 °C
- Rectal temperatures °C. ± SD ([1]; 4 mg/kg intraperitoneal, 120 min): 32.2 ± 0.46 °C
- Rectal temperatures °C. ± SD ([1]; 8 mg/kg intraperitoneal, 30 min): 33.1 ± 0.32 °C
- Rectal temperatures °C. ± SD ([1]; 8 mg/kg intraperitoneal, 60 min): 34.1 ± 0.24 °C
- Rectal temperatures °C. ± SD ([1]; 8 mg/kg intraperitoneal, 90 min): 34.0 ± 0.38 °C
- Rectal temperatures °C. ± SD ([1]; 8 mg/kg intraperitoneal, 120 min): 33.6 ± 0.49 °C
- Rectal temperatures °C. ± SD ([1]; 16 mg/kg intraperitoneal, 30 min): 35.3 ± 0.51 °C
- Rectal temperatures °C. ± SD ([1]; 16 mg/kg intraperitoneal, 60 min): 35.7 ± 0.34 °C
- Rectal temperatures °C. ± SD ([1]; 16 mg/kg intraperitoneal, 90 min): 35.3 ± 0.37 °C
- Rectal temperatures °C. ± SD ([1]; 16 mg/kg intraperitoneal, 120 min): 35.0 ± 0.44 °C
- Rectal temperatures °C. ± SD ([1]; 32 mg/kg intraperitoneal, 30 min): 34.8 ± 0.48 °C
- Rectal temperatures °C. ± SD ([1]; 32 mg/kg intraperitoneal, 60 min): 36.2 ± 0.38 °C
- Rectal temperatures °C. ± SD ([1]; 32 mg/kg intraperitoneal, 90 min): 35.6 ± 0.38 °C
- Rectal temperatures °C. ± SD ([1]; 32 mg/kg intraperitoneal, 120 min): 35.7 ± 0.37 °C
- % of mice which have slept ([2]; 2 mg/kg intraperitoneal): 100%
- Time in minutes for induction of sleep ([2]; 2 mg/kg intraperitoneal): 27 min
- Time in minutes of sleep ([2]; 2 mg/kg intraperitoneal): 67 ± 16 min
- % of mice which have slept ([2]; 2 mg/kg oral): 83%
- Time in minutes for induction of sleep ([2]; 2 mg/kg oral): 25 min
- Time in minutes of sleep ([2]; 2 mg/kg oral): 47 ± 15 min
- % of mice which have slept ([2]; 4 mg/kg intraperitoneal): 83%
- Time in minutes for induction of sleep ([2]; 4 mg/kg intraperitoneal): 22 min
- Time in minutes of sleep ([2]; 4 mg/kg intraperitoneal): 37 ± 13 min
- % of mice which have slept ([2]; 4 mg/kg oral): 25%
- Time in minutes for induction of sleep ([2]; 4 mg/kg oral): 33 min
- Time in minutes of sleep ([2]; 4 mg/kg oral): 56 min
- % of mice which have slept ([2]; 8 mg/kg intraperitoneal): 83%
- Time in minutes for induction of sleep ([2]; 8 mg/kg intraperitoneal): 30 min
- Time in minutes of sleep ([2]; 8 mg/kg intraperitoneal): 25 ± 4 min
- % of mice which have slept ([2]; 8 mg/kg oral): 42%
- Time in minutes for induction of sleep ([2]; 8 mg/kg oral): 32 min
- Time in minutes of sleep ([2]; 8 mg/kg oral): 43 min
- % of mice which have slept ([2]; 16 mg/kg intraperitoneal): 33%
- Time in minutes for induction of sleep ([2]; 16 mg/kg intraperitoneal): 38 min
- Time in minutes of sleep ([2]; 16 mg/kg intraperitoneal): 14 min
- % of mice which have slept ([2]; 16 mg/kg oral): 0%
- Time in minutes for induction of sleep ([2]; 16 mg/kg oral): 0 min
- Time in minutes of sleep ([2]; 16 mg/kg oral): 0 min
- % of mice which have slept ([2]; 32 mg/kg intraperitoneal): 0%
- Time in minutes for induction of sleep ([2]; 32 mg/kg intraperitoneal): 0 min
- Time in minutes of sleep ([2]; 32 mg/kg intraperitoneal): 0 min
- % of mice which have slept ([2]; 32 mg/kg oral): 00%
- Time in minutes for induction of sleep ([2]; 32 mg/kg oral): 0 min
- Time in minutes of sleep ([2]; 32 mg/kg oral): 0 min
